# In patent publication US20150017667A1, “MEANS AND METHODS FOR ASSESSING LIVER DISORDERS” (BASF SE, priority 2012, published 2015):
# Counter-ions that a name gives are not always drawn. Marks after values point to notes of the source that are not given here.
# Tested on: male rats
# Experiment: 28-day repeated dose oral toxicity study (OECD 407) with GC-MS/LC-MS plasma metabolite profiling, male rats
# Format: in vivo, rat
# Details: plasma
# Description: Drinking water was also offered ad libitum.
# The samples were centrifuged for generation of plasma.
smiles,measurement,setting,value
CN(CCOc1ccc(CC2SC(=O)NC2=O)cc1)c1ccccn1 (stereo not drawn) [Rosiglitazone maleate],"Alanine, ratio versus control",day 7,0.78*
same,"Citrulline, ratio versus control",day 7,0.88*
same,"Isoleucine, ratio versus control",day 7,0.7*
same,"Leucine, ratio versus control",day 7,0.74*
same,"Lysine, ratio versus control",day 7,0.78*
same,"Ornithine, ratio versus control",day 7,0.85*
same,"Phenylalanine, ratio versus control",day 7,0.85*
same,"Phosphate (inorganic and organic phosphates), ratio versus control",day 7,0.76*
same,"Phosphatidylcholine (C16:0,C16:0), ratio versus control",day 7,1.14*
same,"Proline, ratio versus control",day 7,0.89*
same,"Valine, ratio versus control",day 7,0.74*
same,"Phosphatidylcholine (C16:0,C20:5), ratio versus control",day 7 (Table 4a),1.07*
same,"Docosahexaenoic acid (C22:cis[4,7,10,13,16,19]6), ratio versus control",day 7 (Table 4b),0.57*
same,"Phosphatidylcholine (C18:0,C22:6), ratio versus control",day 7 (Table 4b),0.87*
same,"Threonine, ratio versus control",day 7 (Table 4b),0.74*
same,"Alanine, ratio versus control",day 14,0.83*
same,"Citrulline, ratio versus control",day 14,0.79
same,"Isoleucine, ratio versus control",day 14,0.72*
same,"Leucine, ratio versus control",day 14,0.66*
same,"Lysine, ratio versus control",day 14,0.77*
same,"Ornithine, ratio versus control",day 14,0.86*
same,"Phenylalanine, ratio versus control",day 14,0.84*
same,"Phosphate (inorganic and organic phosphates), ratio versus control",day 14,0.66*
same,"Phosphatidylcholine (C16:0,C16:0), ratio versus control",day 14,1.22*
same,"Proline, ratio versus control",day 14,0.88*
same,"Valine, ratio versus control",day 14,0.74*
same,"Phosphatidylcholine (C16:0,C20:5), ratio versus control",day 14 (Table 4a),1.11*
same,"Docosahexaenoic acid (C22:cis[4,7,10,13,16,19]6), ratio versus control",day 14 (Table 4b),0.66*
same,"Phosphatidylcholine (C18:0,C22:6), ratio versus control",day 14 (Table 4b),0.9*
same,"Threonine, ratio versus control",day 14 (Table 4b),0.74*
same,"Alanine, ratio versus control",day 28,0.88*
same,"Citrulline, ratio versus control",day 28,0.86*
same,"Isoleucine, ratio versus control",day 28,0.78*
same,"Leucine, ratio versus control",day 28,0.78*
same,"Lysine, ratio versus control",day 28,0.86*
same,"Ornithine, ratio versus control",day 28,0.78*
same,"Phenylalanine, ratio versus control",day 28,0.81*
same,"Phosphate (inorganic and organic phosphates), ratio versus control",day 28,0.69*
same,"Phosphatidylcholine (C16:0,C16:0), ratio versus control",day 28,1.07
same,"Proline, ratio versus control",day 28,0.93*
same,"Valine, ratio versus control",day 28,0.84*
same,"Phosphatidylcholine (C16:0,C20:5), ratio versus control",day 28 (Table 4a),1.06
same,"Docosahexaenoic acid (C22:cis[4,7,10,13,16,19]6), ratio versus control",day 28 (Table 4b),0.83*
same,"Phosphatidylcholine (C18:0,C22:6), ratio versus control",day 28 (Table 4b),0.84*
same,"Threonine, ratio versus control",day 28 (Table 4b),0.87*
